Measurements: ChEMBL document CHEMBL4229445, “Activity of steroid 4 and derivatives 4a-4f as inhibitors of the enzyme 5α-reductase 1” (Bioorg Med Chem, 2018)
Activity calls are given as the source filed them. The calls are words filed in the database; no cut-off is given here.

Experiments:
Syrian golden hamster [1] = assay: Inhibition of testosterone-induced flank organ enlargement in golden hamster assessed as reduction in diameter of pigmented spot at 1 mg/kg, sc administered daily for 6 days measured post last dose by calliper method; assay type: functional, organism-based; conditions: Mesocricetus auratus
Syrian golden hamster [2] = assay: Inhibition of testosterone-induced increase in prostate weight in golden hamster at 1 mg/kg, sc administered daily for 6 days measured post last dose; assay type: functional, organism-based; conditions: Mesocricetus auratus
Syrian golden hamster [3] = assay: Inhibition of testosterone-induced increase in seminal vesicle weight in golden hamster at 1 mg/kg, sc administered daily for 6 days measured post last dose; assay type: functional, organism-based; conditions: Mesocricetus auratus
[4] = molecular target: T1, 3-oxo-5-alpha-steroid 4-dehydrogenase 1 (Rattus norvegicus, UniProt P24008); assay: Inhibition of rat liver microsomes 5alpha-reductase1 using [1,2,6,7-3H]T as substrate measured after 60 mins by chromatographic method
T1 sequence (P24008 whole entry): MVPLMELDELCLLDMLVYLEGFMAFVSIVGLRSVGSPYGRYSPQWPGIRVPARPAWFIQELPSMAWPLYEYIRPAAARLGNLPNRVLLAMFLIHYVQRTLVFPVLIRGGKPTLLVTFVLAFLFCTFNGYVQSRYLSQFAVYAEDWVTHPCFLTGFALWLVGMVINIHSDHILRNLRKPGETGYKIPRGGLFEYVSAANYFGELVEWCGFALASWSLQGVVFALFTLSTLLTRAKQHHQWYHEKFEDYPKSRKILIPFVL

Syrian golden hamster [5] = assay: Inhibition of testosterone-induced flank organ enlargement in golden hamster assessed as reduction in diameter of pigmented spot at 2 mg/kg, sc administered daily for 6 days measured post last dose by calliper method; assay type: functional, organism-based; conditions: Mesocricetus auratus
Syrian golden hamster [6] = assay: Inhibition of testosterone-induced increase in prostate weight in golden hamster at 2 mg/kg, sc administered daily for 6 days measured post last dose; assay type: functional, organism-based; conditions: Mesocricetus auratus
Syrian golden hamster [7] = assay: Inhibition of testosterone-induced increase in seminal vesicle weight in golden hamster at 2 mg/kg, sc administered daily for 6 days measured post last dose; assay type: functional, organism-based; conditions: Mesocricetus auratus
[8] = Drug metabolism in golden hamster plasma assessed as esterase-mediated 21(2-Oxo-ethyl-benzimidazol)-3-ceto, pregnen-16,17-diene formation at 4 mg/kg, sc measured after 60 to 120 mins in presence of testosterone by TLC method; assay type: ADME, organism-based, Mesocricetus auratus; conditions: in vivo
[9] = Stability of the compound in water; assay type: physicochemical; conditions: buffer
[10] = molecular target: T2, 3-oxo-5-alpha-steroid 4-dehydrogenase 2 (Homo sapiens) (UniProt P31213); assay: Inhibition of 5alpha-reductase2 (unknown origin)
T2 sequence (whole entry): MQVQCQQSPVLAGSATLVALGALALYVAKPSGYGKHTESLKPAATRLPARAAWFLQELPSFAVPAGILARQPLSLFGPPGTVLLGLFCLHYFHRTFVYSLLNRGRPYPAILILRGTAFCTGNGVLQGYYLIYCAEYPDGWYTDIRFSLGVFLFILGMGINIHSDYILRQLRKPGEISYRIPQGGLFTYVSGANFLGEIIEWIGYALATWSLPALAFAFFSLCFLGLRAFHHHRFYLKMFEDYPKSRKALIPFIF

[11] = Drug metabolism in golden hamster plasma assessed as esterase-mediated 21(2-Oxo-ethyl-benzimidazol)-3-ceto, pregnen-16,17-diene formation by measuring retardation factor at 4 mg/kg, sc measured after 30 mins in presence of testosterone by TLC method; assay type: ADME, organism-based, Mesocricetus auratus; conditions: in vivo, 0.5 h
Syrian golden hamster [12] = assay: Inhibition of testosterone-induced flank organ enlargement in golden hamster assessed as diameter of pigmented spot at 2 mg/kg, sc administered daily for 6 days measured post last dose by calliper method; assay type: functional, Mesocricetus auratus

SMILES | inhibition (Syrian golden hamster [1]) | inhibition (Syrian golden hamster [2]) | inhibition (Syrian golden hamster [3]) | IC50 [4] | inhibition (Syrian golden hamster [5]) | inhibition (Syrian golden hamster [6]) | inhibition (Syrian golden hamster [7]) | Drug metabolism [8] | Stability [9] | inhibition [10] | IC50 ([4]; read-out: IC50) [µM] | Rf [11] | Activity (Syrian golden hamster [12]) [mm]
CC(C)(C)NC(=O)[C@H]1CC[C@H]2[C@@H]3CC[C@H]4NC(=O)C=C[C@]4(C)[C@H]3CC[C@]12C | Active | Active | Active |  |  |  |  |  |  |  |  |  | 
C[C@]12CC[C@H](OC(=O)c3ccccc3)CC1=CC[C@@H]1[C@@H]2CC[C@]2(C)C(n3cnc4ccccc43)=C(C=O)C[C@@H]12 |  |  |  | Not Active | Active | Active | Active | Metabolite_Detected | Stable | inactive |  |  | 
C[C@]12CC[C@H](O)CC1=CC[C@@H]1[C@@H]2CC[C@]2(C)C(n3cnc4ccccc43)=C(C=O)C[C@@H]12 |  |  |  |  | Active | Active | Active |  |  | inactive | 0.291 |  | 
C[C@]12CC[C@H](OC(=O)c3ccc(Br)cc3)CC1=CC[C@@H]1[C@@H]2CC[C@]2(C)C(n3cnc4ccccc43)=C(C=O)C[C@@H]12 |  |  |  | Not Active | Active | Active | Active | Metabolite_Detected | Stable | inactive |  | 0.42 | 
C[C@]12CC[C@H](OC(=O)c3ccc(Cl)cc3)CC1=CC[C@@H]1[C@@H]2CC[C@]2(C)C(n3cnc4ccccc43)=C(C=O)C[C@@H]12 |  |  |  |  | Active | Active | Active |  | Unstable | inactive | 83 | 0.42 | 
Cc1ccc(C(=O)O[C@H]2CC[C@@]3(C)C(=CC[C@@H]4[C@@H]3CC[C@]3(C)C(n5cnc6ccccc65)=C(C=O)C[C@@H]43)C2)cc1 |  |  |  | Not Active | Active | Active | Active | Metabolite_Detected | Stable | inactive |  |  | 
C[C@]12CC[C@H](OC(=O)c3ccc(I)cc3)CC1=CC[C@@H]1[C@@H]2CC[C@]2(C)C(n3cnc4ccccc43)=C(C=O)C[C@@H]12 |  |  |  | Not Active | Active | Active | Active |  | Stable | inactive |  | 0.42 | 
C[C@]12CC[C@H](OC(=O)c3ccc(F)cc3)CC1=CC[C@@H]1[C@@H]2CC[C@]2(C)C(n3cnc4ccccc43)=C(C=O)C[C@@H]12 |  |  |  |  |  | Active | Active |  | Unstable | inactive | 40 | 0.42 | 1.7
